Reference: patent US9212182B2, “Bicyclic sulfonamide compounds as sodium channel inhibitors” (AMGEN INC., priority 2013, dated 2015)
Read-outs that look alike come from different tables or passages of the source.

Target: Nav 1.7 (Homo sapiens (Human), UniProt Q15858)
Assay: in-vitro Nav 1.7 PX (IC50)
Type: cell-based

Chain of Nav 1.7 (Q15858 whole entry): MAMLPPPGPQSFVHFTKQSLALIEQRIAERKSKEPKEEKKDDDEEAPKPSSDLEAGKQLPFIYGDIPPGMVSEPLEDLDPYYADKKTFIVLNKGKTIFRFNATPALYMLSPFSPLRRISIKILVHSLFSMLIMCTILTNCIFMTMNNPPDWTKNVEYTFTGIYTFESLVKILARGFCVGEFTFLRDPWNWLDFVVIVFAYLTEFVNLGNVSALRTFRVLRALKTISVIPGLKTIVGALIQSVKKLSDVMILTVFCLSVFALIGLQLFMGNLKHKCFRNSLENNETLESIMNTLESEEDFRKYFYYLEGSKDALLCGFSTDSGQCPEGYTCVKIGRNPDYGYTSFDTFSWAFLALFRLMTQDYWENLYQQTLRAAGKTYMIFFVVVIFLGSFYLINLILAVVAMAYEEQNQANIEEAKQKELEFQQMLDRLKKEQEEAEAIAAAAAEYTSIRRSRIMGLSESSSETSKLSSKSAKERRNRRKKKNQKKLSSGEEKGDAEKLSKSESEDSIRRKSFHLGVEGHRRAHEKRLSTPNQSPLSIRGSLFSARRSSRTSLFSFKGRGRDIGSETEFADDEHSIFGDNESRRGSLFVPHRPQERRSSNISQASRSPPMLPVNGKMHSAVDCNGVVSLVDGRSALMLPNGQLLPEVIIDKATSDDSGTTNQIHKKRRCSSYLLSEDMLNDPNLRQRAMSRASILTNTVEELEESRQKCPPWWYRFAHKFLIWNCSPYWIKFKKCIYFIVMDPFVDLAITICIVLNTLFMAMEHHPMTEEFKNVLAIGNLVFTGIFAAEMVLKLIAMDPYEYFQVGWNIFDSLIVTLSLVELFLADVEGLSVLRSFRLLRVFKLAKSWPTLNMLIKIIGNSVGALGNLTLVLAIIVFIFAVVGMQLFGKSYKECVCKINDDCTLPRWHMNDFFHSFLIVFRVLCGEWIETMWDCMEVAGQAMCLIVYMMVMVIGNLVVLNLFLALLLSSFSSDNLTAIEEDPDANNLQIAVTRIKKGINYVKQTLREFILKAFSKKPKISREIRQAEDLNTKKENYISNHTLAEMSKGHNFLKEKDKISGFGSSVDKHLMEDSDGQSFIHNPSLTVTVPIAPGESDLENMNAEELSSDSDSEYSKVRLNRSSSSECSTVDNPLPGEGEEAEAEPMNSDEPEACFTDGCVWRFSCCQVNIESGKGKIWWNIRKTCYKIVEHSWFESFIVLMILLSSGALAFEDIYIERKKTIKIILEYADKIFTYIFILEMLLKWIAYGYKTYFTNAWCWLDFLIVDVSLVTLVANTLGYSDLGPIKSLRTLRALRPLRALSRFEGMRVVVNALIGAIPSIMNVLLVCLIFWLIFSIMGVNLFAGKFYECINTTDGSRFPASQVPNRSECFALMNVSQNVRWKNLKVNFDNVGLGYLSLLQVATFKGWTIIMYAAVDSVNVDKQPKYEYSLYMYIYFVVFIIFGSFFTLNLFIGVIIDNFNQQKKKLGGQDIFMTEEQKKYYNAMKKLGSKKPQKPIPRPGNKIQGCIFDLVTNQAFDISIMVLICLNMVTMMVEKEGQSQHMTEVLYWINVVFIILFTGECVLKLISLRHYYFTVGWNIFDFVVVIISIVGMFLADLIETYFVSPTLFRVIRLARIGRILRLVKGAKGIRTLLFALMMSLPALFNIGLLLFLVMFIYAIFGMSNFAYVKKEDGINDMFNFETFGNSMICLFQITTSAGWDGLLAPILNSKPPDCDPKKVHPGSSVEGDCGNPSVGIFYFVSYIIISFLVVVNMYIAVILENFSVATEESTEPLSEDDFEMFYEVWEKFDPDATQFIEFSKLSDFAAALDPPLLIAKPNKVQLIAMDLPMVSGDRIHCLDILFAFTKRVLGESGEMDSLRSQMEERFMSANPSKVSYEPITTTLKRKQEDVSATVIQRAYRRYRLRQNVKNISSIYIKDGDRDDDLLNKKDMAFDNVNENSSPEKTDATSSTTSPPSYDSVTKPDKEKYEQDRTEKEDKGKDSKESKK

| Compound | IC50 (in-vitro Nav 1.7 PX data) | IC50 |
| --- | --- | --- |
| COc1cc(Cl)c(-c2cccc(F)c2)cc1-n1c(=O)ccc2cc(S(=O)(=O)Nc3ccon3)ccc21 (atropisomer, axis not shown; (M)) [Example 609, (M)-1-(6-chloro-3′-fluoro-4-methoxy-3-biphenylyl)-N-3-isoxazolyl-2-oxo-1,2-dihydro-6-quinolinesulfonamide] | 10.1 µM | – |
| COc1cc(-c2ccc(F)c(C)c2)c(F)cc1-n1c(=O)ccc2cc(S(=O)(=O)Nc3ncccn3)ccc21 [Example 940, 1-(2,4′-difluoro-5-methoxy-3′-methyl-4-biphenylyl)-2-oxo-N-2-pyrimidinyl-1,2-dihydro-6-quinolinesulfonamide] | 0.034 µM | – |
| COc1cc(-c2ccc(Cl)c(C)c2)ccc1-n1c(=O)cnc2cc(S(=O)(=O)Nc3ccon3)ccc21 [Example 1195, 1-(4′-chloro-3-methoxy-3′-methyl-4-biphenylyl)-N-3-isoxazolyl-2-oxo-1,2-dihydro-6-quinoxalinesulfonamide] | – | 0.054 µM |
| COc1cc(-c2cnc(OC)c(Cl)c2)c(F)cc1-n1c(=O)ccc2cc(S(=O)(=O)Nc3cccnn3)ccc21 (atropisomer, axis not shown; (P)) [Example 1157, (P)-1-(4-(5-chloro-6-methoxy-3-pyridinyl)-5-fluoro-2-methoxyphenyl)-2-oxo-N-3-pyridazinyl-1,2-dihydro-6-quinolinesulfonamide] | – | 0.063 µM |
| COc1ccc(-c2cc(F)cc(Cl)c2)cc1-n1c(=O)ccc2cc(S(=O)(=O)Nc3cnccn3)ccc21 [Example 876, 1-(3′-chloro-5′-fluoro-4-methoxy-3-biphenylyl)-2-oxo-N-2-pyrazinyl-1,2-dihydro-6-quinolinesulfonamide] | 0.206 µM | – |
| COc1cc(Br)c(F)cc1-n1c(=O)ccc2cc(S(=O)(=O)Nc3cc(OCC4CCCC4)ncn3)ccc21 (atropisomer, axis not shown; (P)) [Example 1185, (P)-1-(4-bromo-5-fluoro-2-methoxyphenyl)-N-(6-(cyclopentylmethoxy)-4-pyrimidinyl)-2-oxo-1,2-dihydro-6-quinolinesulfonamide] | – | 6.64 µM |
| COc1cc(-c2cccc(Cl)c2C)c(F)cc1-n1c(=O)ccc2cc(S(=O)(=O)Nc3ccon3)ccc21 [Example 712, 1-(3′-chloro-2-fluoro-5-methoxy-2′-methyl-4-biphenylyl)-N-3-isoxazolyl-2-oxo-1,2-dihydro-6-quinolinesulfonamide] | 0.006 µM | – |
| COc1cc(-c2ccc(Cl)cc2)ccc1-n1c(=O)ccc2cc(S(=O)(=O)Nc3ccnc(C)n3)ccc21 [Example 768, 1-(4′-chloro-3-methoxy-4-biphenylyl)-N-(2-methyl-4-pyrimidinyl)-2-oxo-1,2-dihydro-6-quinolinesulfonamide] | 0.052 µM | – |
| COc1cc(F)cc(-c2ccc(-n3c(=O)ccc4cc(S(=O)(=O)Nc5ccnc(C)n5)ccc43)c(OC)c2)c1 [Example 1003, 1-(3′-fluoro-3,5′-dimethoxy-4-biphenylyl)-N-(2-methyl-4-pyrimidinyl)-2-oxo-1,2-dihydro-6-quinolinesulfonamide] | 1.26 µM | – |
| COc1cc(C)cc(-c2ccc(-n3c(=O)ccc4cc(S(=O)(=O)Nc5ccon5)ccc43)c(OC)c2)c1 [Example 784, 1-(3,3′-dimethoxy-5′-methyl-4-biphenylyl)-N-3-isoxazolyl-2-oxo-1,2-dihydro-6-quinolinesulfonamide] | 0.02 µM | – |
| COc1cc(-c2ccc(C)c(F)c2)c(F)cc1-n1c(=O)ccc2cc(S(=O)(=O)Nc3ncc(F)cn3)ccc21 [Example 1127, 1-(2,3′-difluoro-5-methoxy-4′-methyl-4-biphenylyl)-N-(5-fluoro-2-pyrimidinyl)-2-oxo-1,2-dihydro-6-quinolinesulfonamide] | 0.034 µM | – |
| COc1cc(-c2ccc(OC)c(-n3c(=O)ccc4cc(S(=O)(=O)Nc5ccon5)ccc43)c2)ccc1Cl [Example 870, 1-(4′-chloro-3′,4-dimethoxy-3-biphenylyl)-N-3-isoxazolyl-2-oxo-1,2-dihydro-6-quinolinesulfonamide] | 0.023 µM | – |
